Legend:
[1] = tested on: Nrf2-dependent antioxidant signaling in DRG; assay: real-time qPCR of antioxidant genes in lumbar DRG; format: in vivo, mice; conditions: 2 hours after single 16 mg/kg paclitaxel i.p. with or without 50 mg/kg GSSSG oral
Protocol: Changes in gene expression in lumber dorsal root ganglions (DRG) induced by paclitaxel and GSSSG were examined with real-time qPCR after a single administration of paclitaxel with or without GSSSG. We simultaneously administered 16 mg/kg paclitaxel by intraperitoneal injection and 50 mg/kg GSSSG by oral gavage and examined the mRNA expression 2 hours later. Lumbar DRG were isolated from mice as described previously. Removed DRG were immersed in RNA later (Invitrogen, Cat No. AM7020) at 4° C. overnight. After retrieving from RNA later, they were stored at −80° C. DRGs were homogenized in TRIzol reagent (ThermoFisher Scientific, Cat No. 15596026) and mixed with chloroform. After centrifugation at 14000×g at 4° C. for 15 minutes, the transparent top layer was transferred to a new tube. The samples were mixed with 400 μl of isopropanol and incubated at −20° C. for 20 minutes. After centrifugation at 14000×g at 4° C. for 15 minutes, the pellets were collected, mixed with 70% ethanol, and centrifuged at 14000×g at 4° C. for 10 minutes. The pellets were dried for 10 minutes and incubated with 50 μl of nuclease-free water. Complementary DNA was synthesized using the cDNA Reverse Transcription Kit (Applied Biosystems, Cat No. 4368814) and quantitative PCR was performed by using SYBR green (Applied Biosystems, Cat No. A46109). Relative quantification of gene expression was performed via 2^−ΔΔCT method.

[2] = tested on: intraepidermal nerve fibers of hind paws; assay: density of intraepidermal nerve fibers in hind paw skin (immunohistochemistry); format: in vivo, mice (C57BL/6J); conditions: for density of intraepidermal nerve fibers: paclitaxel alone
Protocol: Paclitaxel (Sigma-Aldrich) was dissolved with ethanol and cremophor (1:1) and diluted with normal saline (1:4). Peripheral neuropathy was induced in mice by intraperitoneal (i.p.) administration of 4 mg/kg paclitaxel every other day for a total of 4 injections (cumulative dose of 16 mg/kg), according to a previously described protocol. A stable, crystallized form of GSSSG was produced and provided by Kyowa Hakko Bio CO., LTD. GSSSG was pulverized and mixed in 0.5% methylcellulose. To evaluate the therapeutic effects of GSSSG in a model of PIPN, mice were randomly divided into three groups of 6. Mice were treated with: 1) paclitaxel alone; 2) paclitaxel and GSSSG; 3) or vehicle alone (control). Mice in groups 1 and 2 received paclitaxel as described above, while mice in the control group received the same volume of vehicle. The first dose of GSSSG was given within 1 hour after the first PTX injection. Treatment was administered as oral gavage for 28 days with GSSSG at 50 mg/kg/day (group 2) or 0.5% methylcellulose (groups 1 and 3). The dose of GSSSG was determined based on pilot studies. To determine the effect of GSSSG on the development of PIPN, behavioral tests to assess allodynia and hyperalgesia were conducted on all mice on days-1 (baseline), 7, 14, 21, and 28 after paclitaxel administration. Behavioral tests were performed by an investigator who was blinded to the treatment groups, as described in the next section. Density of intraepidermal nerve fiber (fibers/mm) of hind paws was calculated to evaluate peripheral nerve fiber damage by paclitaxel. Mice were deeply anesthetized with Isoflurane (4%) and euthanized by exsanguination on week 1 or week 4 after paclitaxel treatment for tissue harvest. […] Ten images per mouse (6 mice per group) were taken by fluorescence microscopy (Nikon Eclipse 80i, Nikon Instruments, Inc., Melville, NY), and four out of ten images were randomly selected. The density (fibers/mm basement membrane) was calculated as the number of intraepidermal nerve fiber divided by the length of basement membrane in accordance with the guideline.

Row | SMILES | Nrf2 mRNA levels [1] | expression of GCLC [1] | expression of HO1 [1] | levels of NQO1 mRNA [1] | density of intraepidermal nerve fibers ([2]; 1 week after starting paclitaxel) | density of intraepidermal nerve fibers ([2]; 4 weeks after starting paclitaxel) | paclitaxel-induced loss of intraepidermal nerve fibers ([2]; daily oral 50 mg/kg GSSSG in paclitaxel-treated mice, 4 weeks after starting paclitaxel)
1 | CC(=O)O[C@H]1C(=O)[C@@]2(C)[C@H]([C@H](OC(=O)c3ccccc3)[C@]3(O)C[C@H](OC(=O)[C@H](O)[C@@H](NC(=O)c4ccccc4)c4ccccc4)C(C)=C1C3(C)C)[C@]1(OC(C)=O)CO[C@@H]1C[C@@H]2O [paclitaxel, Paclitaxel, reference compound] | increased Nrf2 mRNA levels | not paclitaxel alone | not paclitaxel alone | not paclitaxel alone | not at 1 week | decreased the density of intraepidermal nerve fibers at 4 weeks | 
2 | N[C@@H](CCC(=O)N[C@@H](CSSSC[C@H](NC(=O)CC[C@H](N)C(=O)O)C(=O)NCC(=O)O)C(=O)NCC(=O)O)C(=O)O [GSSSG, glutathione trisulfide] | increased Nrf2 mRNA levels | upregulated | upregulated | modestly increased |  |  | prevented paclitaxel-induced loss of intraepidermal nerve fibers
